From paper PMC10675732 (Viruses, 2023)

Test system: A36T virus (PA/A36T, A/PR/8/34 (H1N1))
Format: cell-based, influenza A virus

NC(=O)c1nc(F)c[nH]c1=O [Favipiravir]
EC50: 19.1 ± 4.87 µM | Fold change: 0.86

O=C1c2c(O)c(=O)ccn2N([C@@H]2c3ccccc3SCc3c2ccc(F)c3F)[C@@H]2COCCN12 [baloxavir acid]
EC50: 0.00259 ± 0.00133 µM | Fold change: 1.53
